Assay results as given in US20230120666A1, “EXCIPIENTS PROVIDING STABILIZATION AND ENHANCED WATER SOLUBILIZATION AND THEIR USES” (priority 2020, published 2023).
Entries after “also recorded” stand apart in the source; their conditions may differ.

Experiments:
[1] = CBD water solubility / solubility enhancement by UV-Visible spectrometry; type: physicochemical; conditions: for solubility: thermodynamic from solid
Procedure: The General Method used to determine the solubility of CBD is as follows:
Water (1 mL) was added to one of the vials. […] A third vial was prepared with 100 mg of the agent, 1 mL of water, and no CBD for use as a background standard for correcting UV-visible spectra. All three vials were processed (ultrasound) together to minimize variations.
CBD solubility was determined by UV-Visible spectrometry.
Three methods were used for background subtraction: • 1. For agents with very little color, the CBD is seen as a peak on the side of a peak that can be readily measured by drawing a tangent line on the interfering peak to estimate a baseline. This is usable for pure samples, such as the commercial cyclodextrins. • 2. […] For strongly colored agents, small deviations in concentration can overwhelm the CBD signal. In these cases, the full spectra are measured and the standard is multiplied by a weighting factor before subtraction. The weighting factor is adjusted to give close to a zero absorbance at many wavelengths across the difference spectrum and the CBD spectrum is what remains.
CBD concentration is calculated as the absorbance at 274 nm in excess of the retentate absorbance relative to the absorbance of the CBD standard. Abs means absorbance in Table 1.

[2] = Koch et al. 2020, cited from earlier work
[3] = CBD water solubility / solubility enhancement by UV-Visible spectrometry; type: physicochemical; conditions: CBD 1 g in 100 mL water, Qsonica Q2000 1 hr at 100% amplitude, no excipient
healthy male volunteers = assay: In vivo human oral ingestion study of CBD-SupraPlex excipient; conditions: for effects experienced within 15-30 min after ingestion: CBD-SupraPlex (Run #181) 35.6 μg/mL in DI water
Procedure: A highly documented “in house” CBD-SupraPlex® human oral ingestion study was performed to further evaluate the SupraPlex® Excipients in humans. This study involved two healthy male volunteers: Subject #1 was […], 5′10″, 190 lbs., […] an experienced CBD/THC consumer, and Subject #2 was […], 5′6″, 160 lbs., a naïve, and a THC/CBD non consumer […]).
The CBD-SupraPlex® excipient samples were prepared under sanitary, GLP conditions. All CBD dose concentrations were confirmed by standard HPLC protocols.
The CBD-SupraPlex® excipient samples used for oral ingestion were administered sequentially in three, 10 mL ingestion portions as clear, transparent DI aqueous solutions. The 1st portion was ingested in a sublingual mode and last two portions were ingested by normal swallowing. The esthetic taste features of CBD-SupraPlex® excipient (pH2), in DI water were: sour, citrus-lemon, (80% lemon-10% salt taste), slight terpene, slippery film like texture, but with no after taste. When used in ginger ale, it gave a very pleasant taste. At pH4, the sourness is eliminated to give a pleasant slight lemon taste.
Test 1: 10 mL containing 35.6 μg/mL of CBD in DI water, sublingual over 15 min. Test 2: 15 min. after Test 1, 10 mL/35.6 μg/mL of CBD in DI water, normal swallow over 15 min. Total CBD ingested=712 μg in 20 mL DI water over 30 min. Test 3: 15 min. after Test 2, repeat of Test 2 Total CBD ingested=1068 μg in 30 mL DI water over 45 min. Test 4: 2 days later, 40 mL/35.6 μg/mL of CBD in DI water, normal swallow before evening sleep. […] Subject #1 could rarely experience more than 4 hr. normal sleeper night, but after Test 4 they took a 35.6 μg/mL of CBD in 40 mL DI water, sublingual before sleep 2 days after Test 4. When taken before bedtime, about 1 mg CBD dose level gave an excellent, sustained 7-8 hr. sleep cycle with a rested, clear-headed wake-up, no fogginess or after effect.

[4] = In vitro dissolution of Polymer Adducts and Hybrid Excipients; type: physicochemical; conditions: 0.1 N HCl pH 1.2, SGF pH 1.2, PB pH 6.8, SIF pH 6.8; 37±0.5° C.
Procedure: Simulated Gastric Fluid (SGF pH 1.2), Phosphate Buffer (PB pH 6.8) and Simulated Intestinal Fluid (SIF pH 6.8) as dissolution medium. […] At predetermined time intervals, 1 mL samples were withdrawn and replenished with the same volume of fresh medium. The RSV and CBD content in these samples were determined by using a UV-visible Spectrophotometer (U-3010, Hitachi, Japan) and specific amounts of RSV and CBD dissolved and were monitored and estimated as a function of time.
This multiple, hybrid excipient was then lyophilized and used for dissolution studies.

[5] = Storage stability of 20 wt % SupraPlex formulations in sealed plastic vial at RT; type: physicochemical; conditions: loaded in 20 wt % Run #65 in DI water, pH 2.5±0.5, sealed poly(propylene) vial, 12 months
[6] = literature value, Modasiya et al. 2012; cited from earlier work
[7] = literature value, Chauhan et al.; cited from earlier work
[8] = Excipient assisted resveratrol water solubility enhancement; type: physicochemical; conditions: water with the Excipients of the invention (PHC), aqueous with cosolvent or surfactant or cyclodextrin, thermodynamic from solid
Text: They were then examined to determine specific water solubility enhancement properties as a function of excipient composition and reaction parameters used for their syntheses.

## C=C(C)[C@@H]1CCC(C)=C[C@H]1c1c(O)cc(CCCCC)cc1O [CBD, cannabidiol]
[1]; in the presence of naked 2HPBCD
  increased solubility of CBD: 2508.7 fold
[1]; in the presence of naked ACD
  increased solubility of CBD: 3066.2 fold
[1]; in the presence of naked GCD
  increased solubility of CBD: 278.7 fold
[1]; sonication protocol in DI water, no excipient
  increased solubility of CBD: 313.6 fold
[1]; water with the Excipients of the invention, aqueous with cosolvent or surfactant or cyclodextrin, read-out: water solubility of CBD, enhanced
  solubility: 500 to 15100 µg/mL
[1]; water, high power sonication, read-out: Water Solubility of CBD
  solubility: 31 µg/mL
[1]; water, low power sonication, read-out: Water Solubility of CBD
  solubility: 0.4 µg/mL
[1]; with Run #1 retentate (Example 1), baseline not stated
  increased solubility of CBD: 2717.8 fold
[1]; with Run #3 retentate (Example 2), baseline not stated
  increased solubility of CBD: 2673.2 fold
[1]; with Run #4 retentate (Example 3), baseline not stated
  increased solubility of CBD: 4843.2 fold
[1]; with Run #12 insoluble nanosponge suspension (Example 5), baseline not stated
  increased solubility of CBD: 3797.9 fold
[1]; with Run #19 retentate (Example 4), baseline not stated
  increased solubility of CBD: 4634.1 fold
[2]; literature value
  CBD in water alone: 0.0000627 mg/mL
[2]; no sonication
  Water Solubility of CBD: 0.0627 µg/mL
[3]
  μg-CBD: 31.36 µg
Healthy male volunteers; Subject #1, about 1 mg CBD as CBD-SupraPlex (Run #181) before bedtime
  sustained sleep cycle: 7 to 8 h
Healthy male volunteers; Subject #1, experienced consumer
  effects experienced within 15-30 min after ingestion: tingling in fingers, heightened focus, higher energy, relaxed feeling, reduced anxiety, some thirst noted
Healthy male volunteers; Subject #2, naïve non consumer
  effects experienced within 15-30 min after ingestion: peaceful, relaxed, reduced anxiety, remained alert/coordinated, enhanced talking, laughing, higher energy movement, then some drowsiness after 1 hr.
[4]
  in vitro dissolution performance: saturation and incomplete dissolution profiles; also recorded: insoluble
[5]
  solution depletion: essentially no solution depletion

## COc1cc(/C=C/C(=O)CC(=O)/C=C/c2ccc(O)c(OC)c2)ccc1O [curcumin]
[6]
  naked curcumin solubility in DI water: 2.67 µg/mL
[5]
  solution depletion: essentially no solution depletion

## Oc1ccc(C=Cc2cc(O)cc(O)c2)cc1 [resveratrol]
[7]
  naked resveratrol solubility in DI water: 0.04 µg/mL
[8]
  solubility: 5010 to 30600 µg/mL
[4]
  in vitro dissolution performance: saturation and incomplete dissolution profiles
[5]
  solution depletion: essentially no solution depletion
